Values after ≈ are worked out from the molar mass of the structure shown. Structures can show the parent of a compound that is named as a salt. *1 amine or outer side, *2 acyl side, *3 side chain or, on linkers, in order; H or OH if unused. Where a SMILES comes first, the peptide text is derived from it. Bridges are numbered along the chain shown (N, C = ends). Roman numbers before positions name the chains, in order. [ ]: non-standard residue; d: D form. Actinocin(9to1) = Cc1c2oc3c(C)ccc(C(=O)[*:1])c3nc-2c(C(=O)[*:2])c(N)c1=O; NMeV = CN[C@H](C(=O)O)C(C)C; Sar = CNCC(=O)O
Test system: neurons isolated from the cerebrum
Experiment: Naturally occurring neuronal death suppressing action (serum-free cultivation, Crystal Violet)
Type: cell-based, embryonic day 16 rats
Details: Rattus norvegicus, Neuron, 72 h; 0.3 μg/ml; serum-free, 3 days; read-out: Suppression of Naturally Occurring Neuronal Death
Description: The action of compounds to suppress the naturally occurring death of neurons was evaluated in terms of their effectiveness in suppressing or inhibiting the naturally occurring death of neurons as induced by exposing cultured neurons to serum-free cultivation conditions. An experiment was run by a method adapted from the method of Shimojo et al., Neurosci. Lett., 151, 170, 1993. Specifically, neurons were isolated from the cerebrum of embryonic day 16 rats in the usual manner, suspended in a DMEM/F12 medium containing 1% fetal bovine serum, seeded onto a polylysine-coated culture plate at a density of 5×10^4 cells per square centimeter and cultivated at 37° C. in 95% air+5% CO2. After one day of culture, the medium was replaced with a serum-free medium containing a compound to be tested and the cultivation was continued for 3 more days. Subsequently, the cells were fixed with 1% glutaraldehyde and their number was determined by calorimetric quantification using Crystal Violet (Anal. Biochem., 182, 16-19, 1989). The percent suppression of neuronal death by the test compound was determined by the following formula:
(§1) 100×(ODtest-ODcontrol)/(ODnormal-ODcontrol) (%)
where ODtest is the number of cells (absorbance) in the group of addition of test compound after serum removal, ODcontrol is the number of cells (absorbance) in a control group after serum removal, and ODnormal is the number of cells (absorbance) in a control (normal) group without serum removal.

Compared with `NC1CCc2c(-c3ccccc3)[nH]c3ccc(O)c1c23` (stereo not drawn) [Example 174, 5-amino-6-hydroxy-2-phenyl-1,3,4,5-tetrahydrobenz[cd]indole], `NC1CCc2c(-c3ccccc3O)[nH]c3cccc1c23` (stereo not drawn) [Example 185, 5-amino-2-(2-hydroxyphenyl)-1,3,4,5-tetrahydrobenz[cd]indole] is higher in inhibition at 0.3 µg/mL: 64% for the first, 100% for the second.

Going from `Cc1ccc(-c2[nH]c3cccc4c3c2CCC4N)cc1` (stereo not drawn) [Example 99, 5-amino-2-(4-methylphenyl)-1,3,4,5-tetrahydrobenz[cd]indole] to `NC1CCc2c(-c3ccc(Cl)cc3)[nH]c3c(Cl)ccc1c23` (stereo not drawn) [Example 103, 5-amino-8-chloro-2-(4-chlorophenyl)-1,3,4,5-tetrahydrobenz[cd]indole], the inhibition at 0.3 µg/mL falls from 59% to 56%.

Same assay, conditions: Rattus norvegicus, Neuron, 72 h; 1.0 μg/ml; serum-free, 3 days; read-out: Suppression of Naturally Occurring Neuronal Death

Compared with `c1ccc(CNC2CCc3c(-c4ccccc4)[nH]c4cccc2c34)cc1` (stereo not drawn) [Example 153, 5-(N-benzylamino)-2-phenyl-1,3,4,5-tetrahydrobenz[cd]indole], `CNC1CCc2c(-c3ccccc3)[nH]c3cccc1c23` (stereo not drawn) [Example 130, 5-(N-methylamino)-2-phenyl-1,3,4,5-tetrahydrobenz[cd]indole] is lower in inhibition at 1 µg/mL: 100% for the first, 76% for the second.

First: OC1CCN(C2CCc3c(-c4ccccc4)[nH]c4cccc2c34)CC1 (stereo not drawn) [Example 216, 5-(4-hydroxypiperidino)-2-phenyl-1,3,4,5-tetrahydrobenz[cd]indole]
Second: c1ccc(-c2[nH]c3cccc4c3c2CCC4N2CCOCC2)cc1 (stereo not drawn) [Example 148, 5-morpholino-2-phenyl-1,3,4,5-tetrahydrobenz[cd]indole]
The inhibition at 1 µg/mL of the first is higher: 75% for the first, 65% for the second.

For `NC1CCc2c(-c3ccc(Cl)cc3)[nH]c3cccc1c23` (stereo not drawn) [Example 96, 5-amino-2-(4-chlorophenyl)-1,3,4,5-tetrahydrobenz[cd]indole], the inhibition at 1 µg/mL was 37%.

Same assay, conditions: Rattus norvegicus, Neuron, 72 h; 3.0 μg/ml; serum-free, 3 days; read-out: Suppression of Naturally Occurring Neuronal Death

First: NC1CCc2c(-c3ccccc3)[nH]c3ccc(Br)c1c23 (stereo not drawn) [Example 87, 5-amino-6-bromo-2-phenyl-1,3,4,5-tetrahydrobenz[cd]indole]
Second: CN(C)C1CCc2c(-c3ccccc3)[nH]c3cccc1c23 (stereo not drawn) [Example 121, 5-(N,N-dimethylamino)2-phenyl-1,3,4,5-tetrahydrobenz[cd]indole]
The inhibition at 3 µg/mL of the first is higher: 84% for the first, 72% for the second.

First: CCOC(=O)CNC1CCc2c(-c3ccccc3)n(C)c3cccc1c23 (stereo not drawn) [Example 244, 5-[N-(ethoxycarbonylmethyl)]amino-1-methyl-2-phenyl-1,3,4,5-tetrahydrobenz[cd]indole hydrochloride]
Second: Cn1c(-c2ccccc2)c2c3c(cccc31)C(NCC(=O)O)CC2 (stereo not drawn) [Example 223, 5-[N-(carboxymethyl)]amino-1-methyl-2-phenyl-1,3,4,5-tetrahydrobenz[cd]indole hydrochloride]
The inhibition at 3 µg/mL of the first is lower: 57% for the first, 81% for the second.

Going from `c1ccc(-c2[nH]c3cccc4c3c2CCC4N2CCCCC2)cc1` (stereo not drawn) [Example 151, 2-phenyl-5-piperidino-1,3,4,5-tetrahydrobenz[cd]indole] to `CC(=O)NC1CCc2c(-c3ccccc3)[nH]c3cccc1c23` (stereo not drawn) [Example 124, 5-(N-acetylamino)-2-phenyl-1,3,4,5-tetrahydrobenz[cd]indole], the inhibition at 3 µg/mL falls from 98% to 23%.

Same assay, conditions: serum-free condition

With `C[C@@H]1C[C@@H]([C@H](O)CC2CC(=O)NC(=O)C2)C(=O)[C@@H](C)C1` [cycloheximide, reference compound] the “suppression of death of neurons under the serum-free condition (in words)” value was “suppressed”.
`O=C(O)C1=CC(=C(c2ccc(O)c(C(=O)O)c2)c2ccc(O)c(C(=O)O)c2)C=CC1=O` [aurin tricarboxylic acid, reference compound] was tested, and the “suppression of death of neurons under the serum-free condition (in words)” value was “suppressed”.
For `Cc1c2oc3c(C)ccc(C(=O)N[C@@H]4C(=O)N[C@H](C(C)C)C(=O)N5CCC[C@H]5C(=O)N(C)CC(=O)N(C)[C@@H](C(C)C)C(=O)O[C@@H]4C)c3nc-2c(C(=O)N[C@@H]2C(=O)N[C@H](C(C)C)C(=O)N3CCC[C@H]3C(=O)N(C)CC(=O)N(C)[C@@H](C(C)C)C(=O)O[C@@H]2C)c(N)c1=O` [actinomycin D, reference compound] (I: T[dV]P[Sar][NMeV] / II: T[dV]P[Sar][NMeV]; ester I:1-I:C, II:1-II:C; linker I:N-II:N via Actinocin(9to1)), the “suppression of death of neurons under the serum-free condition (in words)” value was “suppressed”.

Test system: neurons isolated from the cerebrum
Experiment: Veratrine-induced neuronal death suppressing action (MTT)
Type: cell-based, embryonic day 16 rats
Details: Rattus norvegicus, Neuron; veratrine 0.35 mM; MTT after 24 h; probit method; read-out: IC50 (50% suppression of veratrine-induced neuronal death)
Description: The action of compounds to suppress the death of neurons induced by veratrine was evaluated in terms of their effectiveness in suppressing the neuronal death as induced by direct addition of veratrine. An experiment was run by a method adapted from the method of Powells et al., J. Pharmacol. Exp. Therapeutics, 255, 1117, 1987. Specifically, neurons were isolated from the cerebrum of embryonic day 16 rats in the usual manner, suspended in a MEM medium containing 10% fetal bovine serum, seeded onto a polylysine-coated culture plate at a density of 2.5×10^5 cells per square centimeter and cultivated at 37° C. in 95% air+5% CO2. Starting on the fifth day of cultivation, treatment was conducted with 10 μM of cytosine arabinoside for 2 days and the cultivation was continued until the 12th day, when a test was run as follows. The cells were treated with a buffer solution containing veratrine (0.35 mM) and a test compound, replaced in a serum-containing medium and cultivated for another 24 h. Subsequently, the number of viable cells was determined by calorimetric quantification using 3-(4,5-dimethylthiazol-2-yl)-2,5-diphenyltetrazolium bromide (MTT). The percent suppression of neuronal death by the test compound was determined by the following formula:
as §1
where ODtest is the number of cells (absorbance) in the group of addition of veratrine+test compound, ODcontrol is the number of cells (absorbance) in a control group of addition of veratrine, and ODnormal is the number of cells (absorbance) in a control (normal) group without addition of veratrine.
In addition, IC50 values indicating the effectiveness in achieving 50% suppression of neuronal death were calculated by the probit method on the basis of the result from more than one concentration.

Going from `Cn1c(-c2ccccc2)c2c3c(cccc31)C(N)CC2` (stereo not drawn) [Example 107, 5-amino-1-methyl-2-phenyl-1,3,4,5-tetrahydrobenz[cd]indole] to `Cc1cc2c3c(c(-c4ccccc4)[nH]c3c1)CCC2N` (stereo not drawn) [Example 113, 5-amino-7-methyl-2-phenyl-1,3,4,5-tetrahydrobenz[cd]indole], the IC50 rises from 0.33 µg/mL (≈ 1.26 µM) to 0.7 µg/mL (≈ 2.67 µM) (2.1-fold).

Going from `NC1CCc2c(-c3ccccc3)[nH]c3ccc(O)c1c23` (stereo not drawn) [Example 174, 5-amino-6-hydroxy-2-phenyl-1,3,4,5-tetrahydrobenz[cd]indole] to `COc1ccc2[nH]c(-c3ccccc3)c3c2c1C(N)CC3` (stereo not drawn) [Example 110, 5-amino-6-methoxy-2-phenyl-1,3,4,5-tetrahydrobenz[cd]indole], the IC50 falls from 3.4 µg/mL (≈ 12.9 µM) to 1.8 µg/mL (≈ 6.47 µM) (1.9-fold).

Going from `NC1CCc2c(-c3ccccc3)[nH]c3ccc([N+](=O)[O-])c1c23` (stereo not drawn) [Example 90, 5-amino-6-nitro-2-phenyl-1,3,4,5-tetrahydrobenz[cd]indole] to `NC1CCc2c(-c3ccc(F)cc3)[nH]c3cccc1c23` (stereo not drawn) [Example 95, 5-amino-2-(4-fluorophenyl)-1,3,4,5-tetrahydrobenz[cd]indole], the IC50 rises from 0.7 µg/mL (≈ 2.39 µM) to 3.1 µg/mL (≈ 11.6 µM) (4.4-fold).

`COc1ccccc1-c1[nH]c2cccc3c2c1CCC3N` (stereo not drawn) [Example 184, 5-amino-2-(2-methoxyphenyl)-1,3,4,5-tetrahydrobenz[cd]indole] and `CCCN(CCC)C1CCc2c(-c3ccccc3)[nH]c3cccc1c23` (stereo not drawn) [Example 150, 5-(N,N-dipropylamino)-2-phenyl-1,3,4,5-tetrahydrobenz[cd]indole] are within 1.5-fold of each other in IC50: 0.8 µg/mL (≈ 2.87 µM) for the first, 1.2 µg/mL (≈ 3.61 µM) for the second.

`COC(=O)C1CCN(C2CCc3c(-c4ccccc4)[nH]c4cccc2c34)CC1.Cl` (stereo not drawn) [Example 225, 5-(4-methoxycarbonylpiperidino)-2-phenyl-1,3,4,5-tetrahydrobenz[cd]indole hydrochloride] and `Cl.Cn1c(-c2ccccc2Cl)c2c3c(cccc31)C(N1CCOCC1)CC2` (stereo not drawn) [Example 239, 2-(2-chlorophenyl)-1-methyl-5-morpholino-1,3,4,5-tetrahydrobenz[cd]indole hydrochloride] are the same in IC50: 2.2 µg/mL for the first, 2.2 µg/mL for the second.

Compound `COC(=O)c1ccc(-c2[nH]c3c(Cl)ccc4c3c2CCC4N)cc1` (stereo not drawn) [Example 171, 5-amino-8-chloro-2-(4-methoxycarbonylphenyl)-1,3,4,5-tetrahydrobenz[cd]indole] has an IC50 of 1.9 µg/mL (≈ 5.57 µM).

Test system: pyramidal cells in the hippocampus CA1 region
Experiment: Effectiveness in gerbil model of delayed neuronal death (damage score, 4 min ischemia)
Type: in vivo
Details: 2 mg/kg, carotid arteries 5 min before ischemia; score 0-4; ischemic control 2.9 ± 0.3; mean ± standard error (Table 3-1)
Description: Specifically, the cervical part of a gerbil under anesthesia by halothane inhalation was incised along the median line to expose the carotid artery on both sides, which were occuluded with clips for 4 min and thereafter brought back to patency. After suturing the incised part, the anesthetization was turned off and the animal was brought back to keeping under normal condition. Three days after loading of cerebral ischemia, the gerbil was anesthetized by administering pentobarbital, fixed by transcardiac formalin perfusion and had the brain isolated. A coronary slice including the fimbria hippocampi was prepared from the isolated brain and stained with Cresyl Violet. The pyramidal cells in the hippocampus CA1 region were examined under an optical microscope and the degree of damage was rated by the following scores: 0, no damage; 1, slight damage; 2, moderate damage; 3, significant damage; 4, total damage. Each test compound was administered through the carotid arteries 5 min before ischemia.

In the case of `NC1CCc2c(-c3ccccc3)[nH]c3ccc(Br)c1c23` (stereo not drawn) [Example 87, 5-amino-6-bromo-2-phenyl-1,3,4,5-tetrahydrobenz[cd]indole], the “Score of damage to hippocampus CA1” value is reported as 1.9 ± 0.6.

Same assay, conditions: 5 mg/kg, carotid arteries 5 min before ischemia; score 0-4; ischemic control 2.9 ± 0.3; mean ± standard error (Table 3-1)

For `CNC1CCc2c(-c3ccccc3)[nH]c3cccc1c23` (stereo not drawn) [Example 130, 5-(N-methylamino)-2-phenyl-1,3,4,5-tetrahydrobenz[cd]indole], the “Score of damage to hippocampus CA1” value was 1.9 ± 0.1.

Same assay, conditions: 10 mg/kg, carotid arteries 5 min before ischemia; score 0-4; ischemic control 2.9 ± 0.3; mean ± standard error (Table 3-1)

For `Cn1c(-c2ccccc2)c2c3c(cccc31)C(N)CC2` (stereo not drawn) [Example 107, 5-amino-1-methyl-2-phenyl-1,3,4,5-tetrahydrobenz[cd]indole], the “Score of damage to hippocampus CA1” value was 0.5 ± 0.5.

Same assay, conditions: 10 mg/kg, carotid arteries 5 min before ischemia; score 0-4; ischemic control 3.5 ± 0.4; mean ± standard error (Table 3-2)

With `Cl.Cn1c(-c2ccccc2F)c2c3c(cccc31)C(N1CCOCC1)CC2` (stereo not drawn) [Example 240, 2-(2-fluorophenyl)-1-methyl-5-morpholino-1,3,4,5-tetrahydrobenz[cd]indole hydrochloride] the “Score of damage to hippocampus CA1” value was 2.1 ± 0.5.

From US6040331A, “Nerve cell protective agents” (Mochida Pharmaceutical Co., Ltd., priority 1996, dated 2000)
